# Assay results as given in ChEMBL document CHEMBL1201862, “PubChem BioAssay data set” (2004).
#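 Briefly, cells in 96-well plates were exposed to five compound concentrations for 48 h, and endpoints were estimated by linear interpolation. The concentration for 50% growth inhibition is given as GI50.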 Active and inactive are the calls of the source. Cut-off read from the data, not from the text of the source: active = GI50 up to about 1.1 µM and inactive = higher.
# How the values were obtained:
# Experiment in all cases: NCI-60 cell line screen, 48 h
# PC-3 = test system: PC-3
# SR = test system: SR
# LOX IMVI = test system: LOX IMVI
# RXF 393 = test system: RXF 393
# SK-OV-3 = test system: SK-OV-3
# ACHN = test system: ACHN
# HCT-116 = test system: HCT-116
# SK-MEL-28 = test system: SK-MEL-28
# OVCAR-8 = test system: OVCAR-8
# KM12 = test system: KM12
# UACC-62 = test system: UACC-62
# COLO 205 = test system: COLO 205
# UACC-257 = test system: UACC-257
# SF-539 = test system: SF-539
# CAKI-1 = test system: CAKI-1
# A549 = test system: A549
# SF-295 = test system: SF-295
# CCRF-CEM = test system: CCRF-CEM
# DU-145 = test system: DU-145
# MDA-MB-231 = test system: MDA-MB-231
# HOP-92 = test system: HOP-92
# HT-29 = test system: HT-29
# EKVX = test system: EKVX
# A498 = test system: A498
# HOP-62 = test system: HOP-62
# M14 = test system: M14
# NCI-H460 = test system: NCI-H460
# T47D = test system: T47D
# NCI/ADR-RES = test system: NCI/ADR-RES
# UO-31 = test system: UO-31
# Malme-3M = test system: Malme-3M
# OVCAR-4 = test system: OVCAR-4
# K562 = test system: K562
# HL-60 = test system: HL-60
# Hs-578T = test system: Hs-578T
# TK-10 = test system: TK-10
# IGROV-1 = test system: IGROV-1
# RPMI-8226 = test system: RPMI-8226
# NCI-H522 = test system: NCI-H522
# SNB-19 = test system: SNB-19
# OVCAR-5 = test system: OVCAR-5
# NCI-H226 = test system: NCI-H226
# MOLT-4 = test system: MOLT-4
# 786-0 = test system: 786-0
# SF-268 = test system: SF-268
# SN12C = test system: SN12C
# SK-MEL-5 = test system: SK-MEL-5
# MCF7 = test system: MCF7
# SW-620 = test system: SW-620
# SNB-75 = test system: SNB-75
# NCI-H23 = test system: NCI-H23
# MDA-N = test system: MDA-N
# MDA-MB-435 = test system: MDA-MB-435
# OVCAR-3 = test system: OVCAR-3
# U-251 = test system: U-251
# HCC 2998 = test system: HCC 2998
# HCT-15 = test system: HCT-15
# SK-MEL-2 = test system: SK-MEL-2
structure (smiles),measurement,setting,value
COC(=O)CCn1cnc2c(SC)ncnc21,GI50,PC-3,> 100 µM (inactive)
same,GI50,SR,> 100 µM (inactive)
same,GI50,LOX IMVI,> 100 µM (inactive)
same,GI50,RXF 393,> 100 µM (inactive)
same,GI50,SK-OV-3,> 100 µM (inactive)
same,GI50,ACHN,> 100 µM (inactive)
same,GI50,HCT-116,> 100 µM (inactive)
same,GI50,SK-MEL-28,> 100 µM (inactive)
same,GI50,OVCAR-8,> 100 µM (inactive)
same,GI50,KM12,> 100 µM (inactive)
same,GI50,UACC-62,> 100 µM (inactive)
same,GI50,COLO 205,> 100 µM (inactive)
same,GI50,UACC-257,> 100 µM (inactive)
same,GI50,SF-539,> 100 µM (inactive)
same,GI50,CAKI-1,> 100 µM (inactive)
same,GI50,A549,> 100 µM (inactive)
same,GI50,SF-295,> 100 µM (inactive)
same,GI50,CCRF-CEM,> 100 µM (inactive)
same,GI50,DU-145,> 100 µM (inactive)
same,GI50,MDA-MB-231,> 100 µM (inactive)
same,GI50,HOP-92,> 100 µM (inactive)
same,GI50,HT-29,> 100 µM (inactive)
same,GI50,EKVX,> 100 µM (inactive)
same,GI50,A498,> 100 µM (inactive)
same,GI50,HOP-62,> 100 µM (inactive)
same,GI50,M14,> 100 µM (inactive)
same,GI50,NCI-H460,> 100 µM (inactive)
same,GI50,T47D,> 100 µM (inactive)
same,GI50,NCI/ADR-RES,> 100 µM (inactive)
same,GI50,UO-31,> 100 µM (inactive)
same,GI50,Malme-3M,> 100 µM (inactive)
same,GI50,OVCAR-4,> 100 µM (inactive)
same,GI50,K562,> 100 µM (inactive)
same,GI50,HL-60,> 100 µM (inactive)
same,GI50,Hs-578T,> 100 µM (inactive)
same,GI50,TK-10,> 100 µM (inactive)
same,GI50,IGROV-1,> 100 µM (inactive)
same,GI50,RPMI-8226,> 100 µM (inactive)
same,GI50,NCI-H522,> 100 µM (inactive)
same,GI50,SNB-19,> 100 µM (inactive)
same,GI50,OVCAR-5,> 100 µM (inactive)
same,GI50,NCI-H226,> 100 µM (inactive)
same,GI50,MOLT-4,> 100 µM (inactive)
same,GI50,786-0,> 100 µM (inactive)
same,GI50,SF-268,> 100 µM (inactive)
same,GI50,SN12C,> 100 µM (inactive)
same,GI50,SK-MEL-5,> 100 µM (inactive)
same,GI50,MCF7,> 100 µM (inactive)
same,GI50,SW-620,> 100 µM (inactive)
same,GI50,SNB-75,> 100 µM (inactive)
same,GI50,NCI-H23,> 100 µM (inactive)
same,GI50,MDA-N,> 100 µM (inactive)
same,GI50,MDA-MB-435,> 100 µM (inactive)
same,GI50,OVCAR-3,> 100 µM (inactive)
O=C(NC(C(F)(F)F)(C(F)(F)F)P(=O)(c1ccccc1)c1ccccc1)C(C(F)(F)F)C(F)(F)F,GI50,PC-3,27.8 µM (inactive)
same,GI50,LOX IMVI,23.2 µM (inactive)
same,GI50,RXF 393,20.2 µM (inactive)
same,GI50,SK-OV-3,> 100 µM (inactive)
same,GI50,ACHN,16.7 µM (inactive)
same,GI50,HCT-116,18.5 µM (inactive)
same,GI50,SK-MEL-28,32.9 µM (inactive)
same,GI50,OVCAR-8,29.3 µM (inactive)
same,GI50,KM12,26.2 µM (inactive)
same,GI50,UACC-62,56 µM (inactive)
same,GI50,COLO 205,20.2 µM (inactive)
same,GI50,UACC-257,29.4 µM (inactive)
same,GI50,SF-539,22.8 µM (inactive)
same,GI50,CAKI-1,0.0131 µM (active)
same,GI50,A549,34.6 µM (inactive)
same,GI50,SF-295,48.4 µM (inactive)
same,GI50,CCRF-CEM,41.8 µM (inactive)
same,GI50,U-251,36.6 µM (inactive)
same,GI50,DU-145,> 100 µM (inactive)
same,GI50,MDA-MB-231,24.2 µM (inactive)
same,GI50,HT-29,14.5 µM (inactive)
same,GI50,EKVX,> 100 µM (inactive)
same,GI50,A498,> 100 µM (inactive)
same,GI50,HOP-62,> 100 µM (inactive)
same,GI50,HCC 2998,> 100 µM (inactive)
same,GI50,M14,17.1 µM (inactive)
same,GI50,NCI-H460,42.3 µM (inactive)
same,GI50,T47D,> 100 µM (inactive)
same,GI50,HCT-15,30 µM
same,GI50,NCI/ADR-RES,21.6 µM (inactive)
same,GI50,Malme-3M,14.2 µM (inactive)
same,GI50,OVCAR-4,37.7 µM (inactive)
same,GI50,K562,33.6 µM (inactive)
same,GI50,HL-60,26.5 µM (inactive)
same,GI50,Hs-578T,54 µM (inactive)
same,GI50,TK-10,37.2 µM (inactive)
same,GI50,IGROV-1,25.7 µM (inactive)
same,GI50,RPMI-8226,33.6 µM (inactive)
same,GI50,NCI-H522,25.9 µM (inactive)
same,GI50,SNB-19,71.3 µM (inactive)
same,GI50,OVCAR-5,34.2 µM (inactive)
same,GI50,NCI-H226,68.9 µM (inactive)
same,GI50,SK-MEL-2,40.6 µM (inactive)
same,GI50,MOLT-4,26.7 µM (inactive)
same,GI50,786-0,18.9 µM (inactive)
same,GI50,SF-268,28.9 µM (inactive)
same,GI50,SN12C,27.9 µM (inactive)
same,GI50,SK-MEL-5,17.8 µM (inactive)
same,GI50,MCF7,26.2 µM (inactive)
same,GI50,SW-620,40.6 µM (inactive)
same,GI50,SNB-75,20.8 µM (inactive)
same,GI50,NCI-H23,21.7 µM (inactive)
same,GI50,MDA-N,20.4 µM (inactive)
same,GI50,MDA-MB-435,18.7 µM (inactive)
same,GI50,OVCAR-3,25.8 µM (inactive)
C=C1C(=O)O[C@H]2C/C(C)=C/CC[C@]3(C)CCC[C@](C)(CC[C@@H]12)O3,GI50,PC-3,12.6 µM (inactive)
same,GI50,SR,4.61 µM (inactive)
same,GI50,LOX IMVI,12.2 µM (inactive)
same,GI50,RXF 393,8.09 µM (inactive)
same,GI50,SK-OV-3,22.2 µM (inactive)
same,GI50,ACHN,8.99 µM (inactive)
same,GI50,HCT-116,8.69 µM (inactive)
same,GI50,SK-MEL-28,7.52 µM (inactive)
same,GI50,OVCAR-8,7.64 µM (inactive)
same,GI50,KM12,8.43 µM (inactive)
same,GI50,UACC-62,8.69 µM (inactive)
same,GI50,COLO 205,6.4 µM (inactive)
same,GI50,UACC-257,8.85 µM (inactive)
same,GI50,SF-539,9.48 µM (inactive)
same,GI50,CAKI-1,12 µM (inactive)
same,GI50,A549,16.6 µM (inactive)
same,GI50,SF-295,21.9 µM (inactive)
same,GI50,CCRF-CEM,0.828 µM (active)
same,GI50,U-251,8.97 µM (inactive)
same,GI50,DU-145,15.2 µM (inactive)
same,GI50,MDA-MB-231,13.3 µM (inactive)
same,GI50,HOP-92,6.46 µM (inactive)
same,GI50,HT-29,8.26 µM (inactive)
same,GI50,EKVX,9.04 µM (inactive)
same,GI50,HOP-62,20.5 µM (inactive)
same,GI50,HCC 2998,7.24 µM (inactive)
same,GI50,NCI-H460,6.79 µM (inactive)
same,GI50,T47D,9.71 µM (inactive)
same,GI50,HCT-15,10.8 µM
same,GI50,NCI/ADR-RES,7.91 µM (inactive)
same,GI50,UO-31,8.69 µM (inactive)
same,GI50,OVCAR-4,15.1 µM (inactive)
same,GI50,K562,8.49 µM (inactive)
same,GI50,Hs-578T,8.69 µM (inactive)
same,GI50,TK-10,8.38 µM (inactive)
same,GI50,IGROV-1,6.59 µM (inactive)
same,GI50,RPMI-8226,5.93 µM (inactive)
same,GI50,NCI-H522,6.35 µM (inactive)
same,GI50,SNB-19,15.8 µM (inactive)
same,GI50,OVCAR-5,13.7 µM (inactive)
same,GI50,NCI-H226,11.9 µM (inactive)
same,GI50,SK-MEL-2,8.51 µM (inactive)
same,GI50,MOLT-4,6.71 µM (inactive)
same,GI50,786-0,5.77 µM (inactive)
same,GI50,SF-268,7.8 µM (inactive)
same,GI50,SN12C,12.7 µM (inactive)
same,GI50,SK-MEL-5,6.44 µM (inactive)
same,GI50,MCF7,13 µM (inactive)
same,GI50,SW-620,7.71 µM (inactive)
same,GI50,SNB-75,11.9 µM (inactive)
same,GI50,NCI-H23,11.3 µM (inactive)
same,GI50,MDA-N,14.6 µM (inactive)
same,GI50,MDA-MB-435,7.01 µM (inactive)
same,GI50,OVCAR-3,9.53 µM (inactive)
